Experimental data as given in patent publication US20250041278A1, “TLR8 AGONIST FOR MODULATING IMMUNE RESPONSE” (The Children's Medical Center Corporation, priority 2021, published 2025).

Columns and labels:
Assay type in all cases: cell-based
[1] = tested on: human monocytic THP-1 cell line; experiment: High throughput screen in THP-1 cells (NF-kB/IRF-inducing and/or leukocyte adherence-inducing activity)
Description: (§1) FIGS. 1A-1D. Discovery of PVP-179 in a human PBMC high-throughput screen. FIG. 1A: A graphical overview depicting screen approach. From a high-throughput screen previously conducted, 310 molecules were identified to be activators of either THP-1 cells (monocyte cell line) or primary human adult peripheral blood mononuclear cells (PBMCs). These 310 molecules were assembled into a stimulation plate and then applied to the PBMCs of 4 elderly donors (cultured with 10% autologous plasma). […] Z scores were averaged across all four elderly donors. The Z score and chemical structure for PVP-179 are indicated. FIG. 1C: Human adult or elderly PBMCs (cultured with 10% autologous plasma) were stimulated with PVP-179 in a two-point concentration titration manner. After 18 hours of incubation, supernatant was processed for ELISA-based measurement of TNF production. N=4 donors. FIG. 1D: As in FIG. 1C, the supernatants were collected, and 14 cytokines were measured by multiplex assay. […] N=4 donors each.
In a previous high throughput screen (HTS), a number of hit molecules were identified as potentially activating human leukocytes. […] A separate pilot screen of 9,000 of the molecules for TNF-inducing activity in adult human peripheral blood mononuclear cells (PBMCs) subsequently identified 133 molecules. […]

[2] = tested on: human adult and elderly PBMCs; experiment: TNF ELISA in human adult or elderly PBMCs, 96-well format; conditions: stimulated for 24 hours
Description: as §1, with “After 18 hours of incubation, supernatant was processed for ELISA-based measurement of TNF production.” left out
The activity of PVP-179 was confirmed in a 96-well format in both human adult and elderly PBMCs.

[3] = tested on: murine bone marrow-derived dendritic cells; experiment: mTNF and mIL-6 ELISA in murine bone-marrow-derived dendritic cells; conditions: murine BMDCs, 18 hours
Experimental: (§2) FIGS. 4A-4D. PVP-179 activates human macrophages and dendritic cells. FIGS. 4A-4B: Murine mononuclear cells were isolated from bone marrow and induced differentiation into dendritic cells (with GM-CSF and IL-4). After 5 days of culturing, these bone-marrow-derived dendritic cells (BMDCs) were stimulated with PVP-179 or MPLA for 18 hours at indicated concentrations. The supernatants were analyzed via ELISA where each dot in the graph represents the mean production of mTNF (FIG. 4A) and mIL-6 (FIG. 4B). N=6 for PVP-179, N=3 for MPLA. Two-way Anova was performed to determine statistical significance. The comparisons shown are compared to control group (0 M PVP-179). FIGS. 4C-4D: PBMCs were isolated from blood of adult human donors. CD14+ monocytes were specifically isolated from the PBMCs and were then cultured in 10% autologous plasma and induced to differentiate into macrophages with M-CSF (FIG. 4C), or dendritic cells with GM-CSF and IL-4 (FIG. 4D). After 5 days, cells were harvested from each differentiated cell type (macrophages: Mφ; dendritic cells: MoDCs) and a 96-well plate was setup with 100,000 cells/well. Cells were then stimulated with indicated concentrations of PVP-179 or R848 (33 μM) or LPS (100 ng/mL). After 20-24 hours of incubation, supernatants were harvested and applied to TNF ELISA. N=2 donors.

[4] = tested on: human monocyte derived macrophages; experiment: TNF ELISA in human monocyte derived macrophages; conditions: 20-24 hours
Experimental: as §2

CCCCn1c(/N=C/c2nc3ccccc3n2C)nc2ccccc21 [PVP-179]
hit call in original THP-1 screen [1]: positive hit
production of TNF ([2]; adult PBMCs): concentration-dependent production of TNF
production of TNF ([2]; elderly PBMCs): concentration-dependent production of TNF
cytokine inducing activity (mTNF, mIL-6) [3]: minimal cytokine inducing activity
TNF-inducing activity [4]: concentration-dependent activity
